Experimental data reported in patent publication US11718631B2, “Sulphonamides and compositions thereof for treating conditions associated with NLRP activity” (Novartis AG, priority 2017, dated 2023).

Each compound was assayed against T1, NLRP3 (Homo sapiens, UniProt Q96P20) (assay: IL-1β production in PMA-differentiated THP-1 cells stimulated with gramicidin (hTHP-1 assay)). Details: hTHP-1 assay containing 2% fetal bovine serum; average IC50, class symbols; read-out: NLRP3 Antagonist, human THP1 NLRP3, IL-1b, Normalized: GeoMean IC50.
T1 construct: IL-1β Production in PMA-Differentiated THP-1 Cells Stimulated with Gramicidin; host or cells: THP-1 cells, PMA-differentiated
T1 sequence (Q96P20 whole entry): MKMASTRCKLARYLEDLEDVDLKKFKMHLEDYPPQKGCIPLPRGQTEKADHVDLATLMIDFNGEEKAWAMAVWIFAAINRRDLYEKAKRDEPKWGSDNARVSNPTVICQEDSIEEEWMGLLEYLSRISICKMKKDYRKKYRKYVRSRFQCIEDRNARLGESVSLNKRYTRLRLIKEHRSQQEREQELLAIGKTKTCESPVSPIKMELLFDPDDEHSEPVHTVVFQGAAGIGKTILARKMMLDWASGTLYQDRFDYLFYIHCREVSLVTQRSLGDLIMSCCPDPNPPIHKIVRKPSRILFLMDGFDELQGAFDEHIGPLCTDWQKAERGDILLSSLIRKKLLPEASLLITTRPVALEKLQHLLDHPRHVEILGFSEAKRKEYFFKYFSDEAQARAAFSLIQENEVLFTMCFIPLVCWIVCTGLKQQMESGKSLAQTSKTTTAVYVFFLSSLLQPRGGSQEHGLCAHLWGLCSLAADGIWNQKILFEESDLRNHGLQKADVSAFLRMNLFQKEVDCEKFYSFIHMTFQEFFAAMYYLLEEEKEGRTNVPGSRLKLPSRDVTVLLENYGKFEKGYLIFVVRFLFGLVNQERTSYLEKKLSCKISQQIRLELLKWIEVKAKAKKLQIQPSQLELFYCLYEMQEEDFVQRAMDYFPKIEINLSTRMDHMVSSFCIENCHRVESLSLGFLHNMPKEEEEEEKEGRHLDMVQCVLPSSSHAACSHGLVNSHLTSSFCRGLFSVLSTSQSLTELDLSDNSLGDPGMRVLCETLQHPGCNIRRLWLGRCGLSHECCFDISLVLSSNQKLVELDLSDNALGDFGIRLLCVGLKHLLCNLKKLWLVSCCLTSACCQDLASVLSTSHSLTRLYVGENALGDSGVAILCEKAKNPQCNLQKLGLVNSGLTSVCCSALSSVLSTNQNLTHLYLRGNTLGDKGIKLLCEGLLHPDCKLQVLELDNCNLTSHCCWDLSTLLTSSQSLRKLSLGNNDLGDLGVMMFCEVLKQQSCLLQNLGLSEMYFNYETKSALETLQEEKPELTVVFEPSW
Format: cell-based
Description: IL-1β Production in PMA-Differentiated THP-1 Cells Stimulated with Gramicidin.
THP-1 cells were purchased from the American Type Culture Collection and sub-cultured according to instructions from the supplier. […] Prior to the experiment THP-1 were treated with PMA (Phorbol 12-myristate 13-acetate) (20 ng/ml) for 16-18 hours. On the day of the experiment the media was removed and adherent cells were detached with trypsin for 5 minutes. […] A vehicle only control was run concurrently with each experiment. Final DMSO concentration was 0.38%.
THP-1 cells were purchased from the American Type Culture Collection and sub-cultured according to instructions from the supplier. […] Prior to the experiment THP-1 were treated with PMA (Phorbol 12-myristate 13-acetate) (20 ng/ml) for 16-18 hours. Compounds were dissolved in dimethyl sulfoxide (DMSO) to generate a 30 mM stock. On the day of the experiment the media was removed and adherent cells were detached with trypsin for 5 minutes. […] Final DMSO concentration was at 0.37%. Cells were incubated with compounds for 1 hour and then stimulated with gramicidin (5 μM) (Enzo) for 2 hours. Plates were then centrifuged at 340 g for 5 min. Cell free supernatant (40 μL) was collected using a 96-channel PlateMaster (Gilson) and the production of IL-1p was evaluated by HTRF (cisbio).
IL-1p Production in PMA-Differentiated THP-1 Cells Stimulated with Gramicidin.
THP-1 cells were purchased from the American Type Culture Collection and sub-cultured according to instructions from the supplier. […] Prior to the experiment, compounds were dissolved in dimethyl sulfoxide (DMSO) to generate a 30 mM stock. […] DMSO was backfilled in the plate to achieve a final DMSO assay concentration of 0.37%. The plate was then sealed and stored at room temperature until required.
THP-1 cells were treated with PMA (Phorbol 12-myristate 13-acetate) (20 ng/ml) for 16-18 hours. On the day of the experiment the media was removed and adherent cells were detached with trypsin for 5 minutes. […] The plates were incubated for 18 h at 4° C. and read using the preset HTRF program (donor emission at 620 nm, acceptor emission at 668 nm) of the SpectraMax i3x spectrophotometer (Molecular Devices, software SoftMax 6).
An IC50 of 1000 to 5000 nM was found for `CC(C)c1cc(C#CC2CCOCC2)cc(C(C)C)c1CC(=O)NS(=O)(=O)c1ccc(CN(C)C)cc1` [Compound 313, N-{4-[(dimethylamino)methyl]benzene-sulfonyl}-2-{4-[2-(oxan-4-yl)ethynyl]-2,6-bis(propan-2-yl)phenyl}acetamide] in this work. An IC50 of 40 to 200 nM was found for `CC(C)c1cc(C#CC2CCCC2)cc(C(C)C)c1CC(=O)NS(=O)(=O)c1ccc(CN(C)C)cc1` [Compound 370, 2-[4-(2-cyclopentylethynyl)-2,6-bis(propan-2-yl)phenyl]-N-{4-[(dimethylamino)methyl]benzene-sulfonyl}acetamide] in this work. An IC50 of 200 to 1000 nM was found for `Cc1ccc(-c2cc(C(C)C)c(CC(=O)NS(=O)(=O)c3ccc(CN(C)C)cc3)c(C(C)C)c2)cc1C` [Compound 118, N-[4-[(dimethylamino)methyl]phenyl] sulfonyl-2-[4-(3,4-dimethylphenyl)-2,6-di(propan-2-yl)phenyl]acetamide] in this work. An IC50 of 5000 to 30000 nM was found for `CC(C)c1cc(-c2ccccc2CO)cc(C(C)C)c1CC(=O)NS(=O)(=O)c1ccc(CN(C)C)cc1` [Compound 124, N-[4-[(dimethylamino)methyl]phenyl] sulfonyl-2-[4-[2-(hydroxymethyl)phenyl]-2,6-di(propan-2-yl)phenyl]acetamide] in this work. An IC50 of 40 to 200 nM was found for `CC(C)c1cc(C#CC2CCCCC2)cc(C(C)C)c1CC(=O)NS(=O)(=O)c1ccc(CN(C)C)cc1` [Compound 324, 2-[4-(2-cyclohexylethynyl)-2,6-bis(propan-2-yl)phenyl]-N-{4-[(dimethylamino)methyl]benzene-sulfonyl}acetamide] in this work. An IC50 of 1000 to 5000 nM was found for `CC(C)c1cc(C2CCCc3ccccc32)cc(C(C)C)c1CC(=O)NS(=O)(=O)c1ccc(CN(C)C)cc1` (stereo not shown) [Compound 321, 2-[2,6-bis(propan-2-yl)-4-(1,2,3,4-tetrahydronaphthalen-1-yl)phenyl]-N-{4-[(dimethylamino)methyl]benzene-sulfonyl}acetamide] in this work. An IC50 of 1000 to 5000 nM was found for `COc1ccccc1-c1cc(C(C)C)c(CC(=O)NS(=O)(=O)c2ccc(CN(C)C)cc2)c(C(C)C)c1` [Compound 121, N-[4-[(dimethylamino)methyl]phenyl] sulfonyl-2-[4-(2-methoxyphenyl)-2,6-di(propan-2-yl)phenyl] acetamide] in this work. An IC50 of 1000 to 5000 nM was found for `CC(C)c1cc(Cl)cc(C(C)C)c1CC(=O)NS(=O)(=O)c1ccc(CN(C)C)cc1` [Compound 149] in this work. An IC50 of 1000 to 5000 nM was found for `CC(C)c1cc(CC2=CCCCC2)cc(C(C)C)c1CC(=O)NS(=O)(=O)c1ccc(CN(C)C)cc1` [Compound 377, 2-[4-(cyclohex-1-en-1-ylmethyl)-2,6-bis(propan-2-yl)phenyl]-N-{4-[(dimethylamino)methyl]benzenesulfonyl}acetamide] in this work. An IC50 of 1000 to 5000 nM was found for `CC(C)c1cc(-c2ccc(Cl)c(F)c2)cc(C(C)C)c1CC(=O)NS(=O)(=O)c1ccc(CN(C)C)cc1` [Compound 120, 2-[4-(4-chloro-3-fluorophenyl)-2,6-di(propan-2-yl)phenyl]-N-[4-[(dimethylamino)methyl]phenyl] sulfonylacetamide] in this work. An IC50 of 1000 to 5000 nM was found for `CC(C)c1cc(CCC2CCCC2)cc(C(C)C)c1CC(=O)NS(=O)(=O)c1ccc(CN(C)C)cc1` [Compound 325, 2-[4-(2-cyclopentylethyl)-2,6-bis(propan-2-yl)phenyl]-N-{4-[(dimethylamino)methyl]benzene-sulfonyl}acetamide] in this work. An IC50 of 5000 to 30000 nM was found for `CC(C)c1cc(-c2ccc3c(ccn3C(=O)OC(C)(C)C)c2)cc(C(C)C)c1CC(=O)NS(=O)(=O)c1ccc(CN(C)C)cc1` [Compound 115, tert-butyl 5-[4-[2-[[4-[(dimethylamino)methyl]phenyl]sulfonylamino]-2-oxoethyl]-3,5-di(propan-2-yl)phenyl]indole-1-carboxylate] in this work.

Same assay, conditions: hTHP-1 assay containing 2% fetal bovine serum; average IC50, given as numeric bound; read-out: NLRP3 Antagonist, human THP1 NLRP3, IL-1b, Normalized: GeoMean IC50
An IC50 greater than 30000 nM was found for `CC(C)c1cc(C2=CCCN(C(=O)OC(C)(C)C)C2)cc(C(C)C)c1CC(=O)NS(=O)(=O)c1ccc(CN(C)C)cc1` [Compound 122, tert-butyl 5-[4-[2-[[4-[(dimethylamino)methyl]phenyl]sulfonylamino]-2-oxoethyl]-3,5-di(propan-2-yl)phenyl]-3,6-dihydro-2H-pyridine-1-carboxylate] in this work.
